The values that follow come from publication PMC11724075, “Small-molecule-induced ERBB4 activation to treat heart failure” (Nature Communications, 2025).

Values joined by “and” are separate entries in the source; they are usually repeats but may differ in a detail not shown here. Identical values can stand only once.

In test [1] the target is T1, ERBB1/ERBB1 (Homo sapiens, UniProt P00533).
T1 construct: host or cells: U2OS (osteosarcoma cells), PathHunter engineered line
As to the kind of experiment: PathHunter U2OS ERBB1/ERBB1 dimerization assay. Type of test: cell-based. The conditions noted are these: for ERBB1/ERBB1 dimerization signal: relative to signal with EGF, single biological replicates. On the procedure: PathHunter U2OS ERBB4/ERBB4 (osteosarcoma cells; Eurofins, 93-0961C3), U2OS ERBB2/ERBB4 (osteosarcoma cells; Eurofins, 493-0960C3), ERBB2/ERBB3 (osteosarcoma cells; Eurofins, 93-1042C3) and ERBB1/ERBB1 (osteosarcoma cells; Eurofins, 93-0989C3) dimerization cell lines were cultured according to the manufacturer’s instructions. Briefly, cells were cultured in Cell Culture Reagent 103 (Eurofins, 92-3103 G) supplemented with 250 µg/mL Hygromycin B (Eurofins, 92-0029) and 500 µg/mL G418 (Eurofins, 92-0030), and were maintained at 37 °C in humidified atmosphere of 5% CO2. HCFs (Innoprot, P10454) were cultured in fibroblast medium (Innoprot, P60108) supplemented with 10% (v/v) fetal bovine serum (FBS, Innoprot), 10% (v/v) fibroblast growth supplement (Innoprot), and 1% (v/v) penicillin/streptomycin solution (Innoprot). iAMs[33] (kindly provided by LUMC) were cultured in Advanced DMEM F-12 (Thermo Fisher Scientific, 12634028) supplemented with 2% (v/v) heat-inactivated FBS (Thermo Fisher Scientific, 10270106), 1% (v/v) penicillin/streptomycin (10,000 units/mL and 10 mg/mL respectively, Thermo Fisher Scientific, 15140122), 1× GlutaMAX (Thermo Fisher Scientific, 35050061), and 100 ng/mL doxycycline (Tocris, 4090) for proliferation. To induce differentiation, iAMs were transferred to medium without doxycycline.
U2OS ERBB4/ERBB4 dimerization cells were seeded at a density of 5 × 10^4 cells/well in 100 µL Cell Plating 0 Reagent, in white 96-well plates (PerkinElmer, 6005680) and incubated for 24 h at 37 °C, 5% CO2. […] Next, 110 µL PathHunter Flash Detection Reagent was added to each well and incubated at RT for 1 h after which the luminescence signal was measured using the Luminoskan Ascent (Thermo Fisher Scientific). […] The same experimental set-up was used for the U2OS ERBB2/ERBB4, U2OS ERBB2/ERBB3 and U2OS ERBB1/ERBB1 dimerization cell lines.

Test [2] has as its system HCFs. The test is described as follows: Bulk RNA sequencing and GSEA of human cardiac fibroblasts. Type of test: cell-based. To be noted: EF-1 32 µM, 16 h, log2-fold change >0, P adj <0.05. On the procedure: iAMs were seeded at a density of 6 ×10^6 cells/mL in differentiation medium in 75-cm^2 cell culture flasks (Greiner Bio-One, 658175) and incubated for 9 days (d0 = day of seeding). HCF were seeded at a density of 3 × 10^6 cells/mL in fibroblast medium in 75-cm^2 cell culture flasks. […] Next, cells were lysed using 350 µL buffer RLT (Qiagen) supplemented with β-mercaptoethanol (100:1; Merck, 444203). Total RNA was isolated using the RNeasy Micro Kit (Qiagen, 74104) according to the manufacturer’s protocol, with an extra step of DNase digestion. The concentration and quality of RNA were determined using a Qubit fluorometer (Thermo Fisher Scientific) and 2100 Agilent BioAnalyzer (Agilent Technologies), respectively. Samples with an RNA integrity number >7 were used for library preparation. Sequencing libraries were prepared by Genewiz/Azenta (Leipzig) on cDNA prepared from polyadenylated mRNA. Libraries were sequenced using a NovaSeq 6000 (Illumina) with a read length of 2 ×150 bp.
Gene expression was quantified at the transcript level using Salmon (v1.10.0)[60], with the validatMappings and -gcBias parameters switched on, to the Rnor_6.0 or GRCh38 transcriptome. […] Functional enrichment of DEGs was determined using a hypergeometric test against the Gene Ontology database by using the ClueGO (v2.5.7)[64] module of Cytoscape (v3.9.1)[65] with Benjamini–Hochberg adjusted (FDR) P < 0.05. […]

The test system of test [3] is mouse model of DOX-induced acute cardiac toxicity. As to the kind of experiment: Acute high-dose DOX-induced cardiotoxicity, cTnI ELISA, wild type mice. Type of test: in vivo. On the set-up: In vivo DOX experiment in female wild type mice with EF-1 (cTnI) / In vivo DOX experiment in fmale wild type mice with EF-1 (cTnI): unit not given here. Here is the method:
DOX (20 mg/kg; Pfizer, 4222) was administered intraperitoneally once on day 4 to induce cardiotoxicity. On day 7, mice were euthanized, serum samples were collected via the retrobulbar sinus and hearts were excised.
Serum samples were centrifuged for 15 min (1000 × g) at 4 °C and analyzed using a mouse cardiac Troponin I Type 3 ELISA kit (Novus Biologicals, NBP3–00456), according to the manufacturer’s instructions. Briefly, a 96-well microplate was coated with an anti-mouse TNNI3/cTnI primary antibody (Capture Antibody Solution). Standard solution or samples (100 μL) were added to the plate and incubated for 90 min at 37 °C. A biotinylated anti-mouse TNNI3/cTnI detection antibody was added, and the plate was incubated for 1 h at 37 °C followed by 3 washes with Wash Buffer. An avidin–horseradish peroxidase conjugate (Detection Antibody Solution) was then added, and the plate was incubated once more for 30 min at 37 °C. After 3 washes with Wash Buffer, Substrate Reagent was added. Following incubation for 15 min at 37 °C, the enzymatic reaction was terminated by the addition of Stop Solution. Sample optical densities at 450 nm were converted to […] concentrations of mouse TNNI3/cTnI using a calibration curve.

T1 sequence (P00533 25-1210): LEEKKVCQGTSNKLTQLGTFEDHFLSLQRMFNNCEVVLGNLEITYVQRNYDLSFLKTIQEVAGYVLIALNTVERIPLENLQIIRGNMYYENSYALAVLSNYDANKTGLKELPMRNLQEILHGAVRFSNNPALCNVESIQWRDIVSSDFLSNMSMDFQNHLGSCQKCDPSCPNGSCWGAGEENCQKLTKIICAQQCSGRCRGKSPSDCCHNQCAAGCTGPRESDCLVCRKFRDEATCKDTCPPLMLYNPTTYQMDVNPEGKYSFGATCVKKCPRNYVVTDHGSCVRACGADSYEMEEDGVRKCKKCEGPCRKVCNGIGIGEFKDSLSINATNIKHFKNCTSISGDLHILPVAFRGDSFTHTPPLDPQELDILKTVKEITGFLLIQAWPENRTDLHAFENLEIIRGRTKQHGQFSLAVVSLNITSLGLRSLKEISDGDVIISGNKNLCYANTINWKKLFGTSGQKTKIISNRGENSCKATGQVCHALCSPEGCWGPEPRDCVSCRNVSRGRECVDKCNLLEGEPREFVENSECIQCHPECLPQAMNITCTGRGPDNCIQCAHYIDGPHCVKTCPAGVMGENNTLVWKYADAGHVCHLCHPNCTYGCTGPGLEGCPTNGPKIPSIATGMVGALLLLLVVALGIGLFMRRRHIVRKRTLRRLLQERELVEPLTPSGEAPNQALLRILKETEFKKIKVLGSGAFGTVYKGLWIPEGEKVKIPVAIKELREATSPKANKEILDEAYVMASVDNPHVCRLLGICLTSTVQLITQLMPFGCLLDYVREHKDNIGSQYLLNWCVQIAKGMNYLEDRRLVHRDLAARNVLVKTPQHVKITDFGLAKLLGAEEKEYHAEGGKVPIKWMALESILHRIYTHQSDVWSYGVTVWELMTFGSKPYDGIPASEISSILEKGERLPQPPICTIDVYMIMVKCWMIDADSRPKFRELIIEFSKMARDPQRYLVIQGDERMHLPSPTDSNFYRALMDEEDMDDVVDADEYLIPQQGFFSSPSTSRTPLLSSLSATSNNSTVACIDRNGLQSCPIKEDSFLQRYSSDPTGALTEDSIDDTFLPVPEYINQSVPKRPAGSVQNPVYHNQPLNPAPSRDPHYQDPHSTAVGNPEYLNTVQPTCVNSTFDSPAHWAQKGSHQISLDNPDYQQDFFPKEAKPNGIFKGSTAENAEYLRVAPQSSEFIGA
T1 sequence (P00533 25-1210): as above

As to `O=C(NC1CC1)C(Sc1nc2ccccc2c(=O)n1C1CCCC1)c1ccccc1` (centres unmarked) [EF-1], in test [1], the EC50 – broadly, the concentration giving half of the maximal effect – was more than 32 µM. The ERBB1/ERBB1 dimerization signal in test [1] (3.125e-8 M) was 0; in test [1] (6.25e-8 M), 8.38 and 6.13 and 6.6 and 7.02 and 4.04 and 2.46; in test [1] (1.25e-7 M) it was 4.23 and 2.21 and 2.75 and 1.65 (2×) and 1.93; in test [1] (2.5e-7 M), 5.73 and 2.08 and 2.79 and 4.91 and 2.29 and 1.1; in test [1] (5e-7 M), 5.49 and 1.35 and 1.39 and 3.65 and 1.57 and 0.45; in test [1] (1e-6 M) it was 6.08 and 3.69 and 2.97 and 5.23 and 2.17 and 1.53. The ERBB1/ERBB1 dimerization signal was 8.8 and 4.67 and 6.18 and 5.92 and 4.48 and 3.39 in test [1] (2e-6 M); 15.68 and 13.03 and 10.62 and 10.47 and 7.22 and 7.25 in test [1] (4e-6 M); 28.31 and 23.51 and 19.8 and 20.63 and 14.67 and 14.01 in test [1] (8e-6 M); 47.08 and 37.9 and 37.11 and 43.5 and 44.59 and 32.06 in test [1] (1.6e-5 M); 67.98 and 64.53 and 62.88 and 78.66 and 59.73 and 53.27 in test [1] (3.2e-5 M). The “number of significantly downregulated genes compared to Veh” value in test [2] is 507. In addition, the “number of significantly upregulated genes compared to Veh” value in test [2] amounted to 336. For the same molecule, in test [3] (female wild type mice, DOX/EF-1 group, individual animals, Fig. 6b), the “In vivo DOX experiment in female wild type mice with EF-1 (cTnI)” value was 8.09 and 3.543 and 6.879 and 1.657 and 7.427 and 2.8057 and 6.224 and 3.861. For the same molecule, the “effect on DOX-induced increase in circulating cTnI plasma levels (in words)” value in test [3] (female wild type mice, EF-1 2 mg/kg, 7 days, DOX 20 mg/kg IP day 4) was “significantly prevented the DOX-induced increase in circulating cTnI plasma levels”. In test [3] (fmale wild type mice, DOX/EF-1 group, individual animals, Fig. 6c), the “In vivo DOX experiment in fmale wild type mice with EF-1 (cTnI)” value is 273.659 and 148.181 and 198.844 and 244.235 and 228.218 and 232.739 and 226.672 and 236.453 and 259.198.
